Results published in publication PMC11371738, “Development of an ic-CLEIA for precise detection of 3-CQA in herbs and patent medicines: ensuring quality control and therapeutic efficacy” (Frontiers in Nutrition, 2024).
In brackets after ≈: the same amount, converted by molar mass.

Experiments:
anti-3-CQA mAb [1] = assay: mAb-based indirect competitive chemiluminescence enzyme immunoassay (ic-CLEIA); format: binding, mouse; details: for CR (cross-reactivity) = IC50 3-CQA / IC50 analogue x 100%: ic-CLEIA; for IC50: 3-CQA-OVA coating 2 μg/mL, mAb 1:8000, deionized water pH 7.0
Method: To establish the optimal conditions for the ic-CLEIA, a checkerboard titration was employed. The protocols of the ic-CLEIA were performed as previously ([20]). A gradient concentration of 3-CQA-OVA (0.125, 0.5, 2.0, and 8.0 μg/mL; 100 μL/well) was diluted in PBS and added to a 96-well white microliter plate (Costar Inc., Cambridge, MA, United States), followed by incubation at 4°C overnight. After washing each well three times with PBST (PBS solution containing 0.05% Tween-20, pH 7.4), the plates were blocked with 5% skimmed milk powder (SMP) (Sigma, St Louis, MO, United States) in PBS (200 μL/well) at 37°C for 2 h. Subsequently, different concentrations of mAb (1:2000, 1:4000, 1:8000, 1:16000, 1:32000, 1:64000, and 1:128000; 100 μL/well) were added to different wells, followed by incubation at 4°C for 50 min. For ic-CLEIA standard curve, 3-CQA standard solutions in PBS (0.01, 0.025, 0.05, 0.1, 0.25, 0.5, 1, 2.5, 5, 10, 25, 50, and 100 ng/mL; 50 μL) and the diluted antibody in PBS (50 μL) were added to each well and incubated at 4°C for 50 min. After a washing step, goat anti-mouse IgG-horse radish peroxidase (HRP) (SinoBiological, Beijing, China) dissolved in PBS supplemented with 2% SMP was added at a 1:5000 dilution (100 μL/well), and the plates were incubated at 37°C for 50 min. Afterward, 100 μL of chemiluminescent substrate solution (Heliosense Biotechnology, Xiamen, China) was pipetted into each well, and the emitted photons were immediately read at 595 nm using a Tecan Infinite F200 reader (Mannedorf, Switzerland). To investigate the effects of different factors on the overall reaction system, different pH (6.5, 7.0, 7.4, and 8.0), methanol aqueous solution (5, 10, 30, and 50%; v/v), Tween-20 (0.01, 0.02, 0.04, 0.06, and 0.08%, v/v), sodium chloride solution (0.1 M, 0.2 M, and 0.4 M) were prepared and tested.
All incubation steps were performed in the dark throughout the procedure. The competitive inhibition curves for 3-CQA were plotted using GraphPad Prism 8.0 (GraphPad Inc., San Diego, CA).
To evaluate CR, the structural analogs of 3-CQA including 4-CQA, 5-CQA, 3,5-dicaffeoylquinic acid, 4,5-dicaffeoylquinic acid, 3,4-dicaffeoylquinic acid, and tea polyphenols (DESITE Biotech, Chengdu, China) were used in place of 3-CQA within the ic-CLEIA assay. The respective CR values of these analogs were determined using the following equation: […]

anti-3-CQA mAb [2] = assay: indirect competitive ELISA (ic-ELISA); format: binding, mouse; details: same conditions as ic-CLEIA
Method: The protocols of ic-ELISA are similar to the ic-CLEIA, 3-CQA-OVA antigen, anti-3-CQA mAb, and goat anti-mouse IgG-HRP were successively incubated under optimized conditions. 3-CQA standard solutions in PBS (1, 2, 4, 8, 16, 32, 64, 128, 256, and 512 ng/mL; 50 μL) and the diluted antibody in PBS (50 μL) were added to each well and incubated at 4°C for 50 min. Subsequent to four washes, 3, 3′, 5, 5′-tetramethylbenzidine (TMB, 100 μL/well) solution was added and incubated at 37°C for 10 min. The reaction was then terminated by adding 2 M H2SO4 (50 μL/well), and the absorbance was measured at the wavelength of 450 nm (OD450). The competitive inhibition curve was plotted using Lg[10*C3-CQA (ng/mL)] as the abscissa and B/B0 (B0 is the OD450 value without standard, and B is the OD450 value with standard present) as the ordinate.

SMILES	CR (cross-reactivity) = IC50 3-CQA / IC50 analogue x 100% (anti-3-CQA mAb [1])	IC50 (anti-3-CQA mAb [1]; optimized conditions)	IC20 (lower end of linear range) (anti-3-CQA mAb [1]; optimized conditions)	IC80 (upper end of linear range) (anti-3-CQA mAb [1]; optimized conditions)	calibration / linear / detection range (IC20-IC80) (anti-3-CQA mAb [1]; optimized conditions)	limit of detection (LOD, IC10) (anti-3-CQA mAb [1]; optimized conditions)	IC50 (anti-3-CQA mAb [2])	LOD (anti-3-CQA mAb [2])	linear / detection range (anti-3-CQA mAb [2])
O=C(/C=C/c1ccc(O)c(O)c1)OC1CC(O)(C(=O)O)CC(O)C1OC(=O)/C=C/c1ccc(O)c(O)c1 (stereo not shown) [3,4-dicaffeoylquinic acid]	2.10%	0.14173 µg/mL							
O=C(/C=C/c1ccc(O)c(O)c1)OC1CC(O)(C(=O)O)CC(OC(=O)/C=C/c2ccc(O)c(O)c2)C1O (stereo not shown) [3,5-dicaffeoylquinic acid]	10.71%	0.02774 µg/mL							
O=C(C=Cc1ccc(O)c(O)c1)OC1CC(O)(C(=O)O)CC(O)C1O (stereo not shown) [3-CQA, 3-caffeoylquinic acid]	100.00%	0.00297 µg/mL	0.00064 µg/mL	0.01375 µg/mL	0.00064 to 0.01375 µg/mL	0.00039 µg/mL	0.03606 µg/mL (≈ 0.102 µM)	6.71 ng/mL	10.21 to 127.36 ng/mL
O=C(/C=C/c1ccc(O)c(O)c1)OC1CC(O)(C(=O)O)CC(O)C1OC(=O)/C=C/c1ccc(O)c(O)c1 (stereo not shown) [4,5-dicaffeoylquinic acid]	0.31%	0.97156 µg/mL							

Further lines, with some results ahead:

CR (cross-reactivity) = IC50 3-CQA / IC50 analogue x 100% (anti-3-CQA mAb [1])	IC50 (anti-3-CQA mAb [1]; optimized conditions)	IC20 (lower end of linear range) (anti-3-CQA mAb [1]; optimized conditions)	IC80 (upper end of linear range) (anti-3-CQA mAb [1]; optimized conditions)	calibration / linear / detection range (IC20-IC80) (anti-3-CQA mAb [1]; optimized conditions)	limit of detection (LOD, IC10) (anti-3-CQA mAb [1]; optimized conditions)	IC50 (anti-3-CQA mAb [2])	SMILES	LOD (anti-3-CQA mAb [2])	linear / detection range (anti-3-CQA mAb [2])
0.62%	0.48062 µg/mL						O=C(/C=C/c1ccc(O)c(O)c1)OC1C(O)CC(O)(C(=O)O)CC1O (stereo not shown) [4-CQA, 4-caffeoylquinic acid]		
1.81%	0.16444 µg/mL						O=C(/C=C/c1ccc(O)c(O)c1)OC1CC(O)(C(=O)O)CC(O)C1O (stereo not shown) [5-CQA, 5-caffeoylquinic acid]		
